# Assay results published in the supplement of paper PMC10307832.
# Legend:
# Assay in all cases: relative viability (nuclei count vs DMSO), 5 days (fraction); higher = more cells survive
# FG-4592 + Alpelisib = compound: Cc1nc(C(=O)NCC(=O)O)c(O)c2ccc(Oc3ccccc3)cc12 [FG-4592] + Cc1nc(NC(=O)N2CCC[C@H]2C(N)=O)sc1-c1ccnc(C(C)(C)C(F)(F)F)c1 [Alpelisib] (partner 2 µM)
# How it was run: (§1)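 Lung cancer cell lines, seeded in 1536-well plates, were treated the following day by pin tool with a single drug or with five library-drug doses (not always all listed) in √10 steps on top of a fixed anchor-drug dose. Cells were fixed and nuclei stained in one step after 5 days, and nuclei were counted. Relative viability is the nuclei count for treated wells divided by that for vehicle wells, reported as medians of duplicate plates.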
# IU1-47 + Palbociclib = compound: CC1=CC(=C(N1C2=CC=C(C=C2)Cl)C)C(=O)CN3CCCCC3 [IU1-47] + CC(=O)c1c(C)c2cnc(Nc3ccc(N4CCNCC4)cn3)nc2n(C2CCCC2)c1=O [Palbociclib] (partner 0.5 µM)
# How it was run: as §1
# FG-4592 + Decitabine = compound: Cc1nc(C(=O)NCC(=O)O)c(O)c2ccc(Oc3ccccc3)cc12 [FG-4592] + Nc1ncn([C@H]2C[C@H](O)[C@@H](CO)O2)c(=O)n1 [Decitabine] (partner 2 µM)
# How it was run: as §1
# IU1-47 + Pemetrexed = compound: CC1=CC(=C(N1C2=CC=C(C=C2)Cl)C)C(=O)CN3CCCCC3 [IU1-47] + Nc1nc2[nH]cc(CCc3ccc(C(=O)N[C@@H](CCC(=O)O)C(=O)O)cc3)c2c(=O)[nH]1 [Pemetrexed] (partner 0.2 µM)
# How it was run: as §1
Cell Line,relative viability (FG-4592 + Alpelisib; first compound 0.08 µM),relative viability (FG-4592 + Alpelisib; first compound 0.253 µM),relative viability (FG-4592 + Alpelisib; first compound 0.8 µM),relative viability (FG-4592 + Alpelisib; first compound 2.53 µM),relative viability (FG-4592 + Alpelisib; first compound 8 µM),relative viability (IU1-47 + Palbociclib; first compound 0.08 µM),relative viability (IU1-47 + Palbociclib; first compound 0.253 µM),relative viability (IU1-47 + Palbociclib; first compound 0.8 µM),relative viability (IU1-47 + Palbociclib; first compound 2.53 µM),relative viability (IU1-47 + Palbociclib; first compound 8 µM),relative viability (FG-4592 + Decitabine; first compound 0.08 µM),relative viability (FG-4592 + Decitabine; first compound 0.253 µM),relative viability (FG-4592 + Decitabine; first compound 0.8 µM),relative viability (FG-4592 + Decitabine; first compound 2.53 µM),relative viability (FG-4592 + Decitabine; first compound 8 µM),relative viability (IU1-47 + Pemetrexed; first compound 0.08 µM),relative viability (IU1-47 + Pemetrexed; first compound 0.253 µM),relative viability (IU1-47 + Pemetrexed; first compound 0.8 µM),relative viability (IU1-47 + Pemetrexed; first compound 2.53 µM),relative viability (IU1-47 + Pemetrexed; first compound 8 µM)
BEN,0.831,0.807,0.753,0.965,0.701,0.54,0.452,0.448,0.497,0.512,0.649,0.651,0.555,0.738,0.607,0.732,0.765,0.899,0.523,0.674
NCI-H23,0.663,0.678,0.772,0.679,0.673,0.532,,0.431,0.511,0.499,0.322,0.268,0.334,0.265,0.267,0.608,,0.59,0.708,0.692
NCI-H1395,0.973,0.914,,0.896,0.693,0.58,0.569,0.631,0.655,0.567,0.766,0.677,0.75,0.686,0.614,0.888,0.853,0.747,0.508,0.738
201T,0.96,0.96,0.879,1.02,1.03,0.377,0.417,0.361,0.391,0.399,0.865,0.839,0.842,0.859,0.878,0.458,0.386,0.317,0.261,0.389
NCI-H2170,0.823,0.801,0.794,0.826,0.581,0.461,0.463,0.455,0.411,0.382,0.445,0.479,0.447,0.506,0.356,0.28,0.362,0.278,0.264,0.258
NCI-H460,0.549,0.46,0.571,0.517,0.444,0.24,0.123,0.16,0.153,0.105,0.448,0.461,0.51,0.482,0.51,0.0569,0.0572,0.0551,0.0515,0.0695
NCI-H661,0.386,0.581,0.626,0.835,0.727,0.433,0.425,0.44,0.415,0.443,0.526,0.469,0.563,0.535,0.484,0.925,0.961,0.977,0.925,0.947
HCC-15,0.883,0.856,0.913,0.871,0.915,0.795,0.765,0.82,0.595,0.703,0.677,0.585,0.606,0.661,0.765,0.229,0.219,0.226,0.218,0.228
LCLC-103H,0.887,0.875,0.749,0.966,1.06,0.551,0.531,0.506,0.478,0.469,0.773,0.747,0.664,0.741,0.66,0.474,0.464,0.469,0.449,0.519
NCI-H441,0.849,0.704,0.853,0.878,0.519,0.265,0.243,0.206,0.204,0.188,0.235,0.255,0.234,0.232,0.25,0.255,0.273,0.278,0.306,0.265
EPLC-272H,0.834,0.799,0.643,0.946,0.887,0.315,0.338,0.289,,0.336,0.417,0.302,0.304,0.368,0.382,0.332,0.422,0.316,0.327,0.313
